Test results published in publication PMC9412994 (Pharmaceutics, 2022).
Read-outs that look alike come from different tables or passages of the source.

Columns and labels:
[1] = rats, cited from earlier work
[2] = system: bovine brain capillary endothelial cells; conditions: bovine brain capillary endothelial cells on filter inserts, co-culture with glial cells; cited from earlier work
[3] = cited from earlier work
[4] = system: rodent P-gp; design: method as in PMID 32856111; conditions: LLC-PK1-Mdr1a cells; cited from earlier work
[5] = molecular target: T1, human P-gp (Homo sapiens, UniProt P08183); conditions: MDCK-MDR1 cells, same origin; cited from earlier work
T1 construct: host or cells: MDCKII-MDR1 (stably transfected canine kidney cells)
T1 sequence (P08183 whole entry): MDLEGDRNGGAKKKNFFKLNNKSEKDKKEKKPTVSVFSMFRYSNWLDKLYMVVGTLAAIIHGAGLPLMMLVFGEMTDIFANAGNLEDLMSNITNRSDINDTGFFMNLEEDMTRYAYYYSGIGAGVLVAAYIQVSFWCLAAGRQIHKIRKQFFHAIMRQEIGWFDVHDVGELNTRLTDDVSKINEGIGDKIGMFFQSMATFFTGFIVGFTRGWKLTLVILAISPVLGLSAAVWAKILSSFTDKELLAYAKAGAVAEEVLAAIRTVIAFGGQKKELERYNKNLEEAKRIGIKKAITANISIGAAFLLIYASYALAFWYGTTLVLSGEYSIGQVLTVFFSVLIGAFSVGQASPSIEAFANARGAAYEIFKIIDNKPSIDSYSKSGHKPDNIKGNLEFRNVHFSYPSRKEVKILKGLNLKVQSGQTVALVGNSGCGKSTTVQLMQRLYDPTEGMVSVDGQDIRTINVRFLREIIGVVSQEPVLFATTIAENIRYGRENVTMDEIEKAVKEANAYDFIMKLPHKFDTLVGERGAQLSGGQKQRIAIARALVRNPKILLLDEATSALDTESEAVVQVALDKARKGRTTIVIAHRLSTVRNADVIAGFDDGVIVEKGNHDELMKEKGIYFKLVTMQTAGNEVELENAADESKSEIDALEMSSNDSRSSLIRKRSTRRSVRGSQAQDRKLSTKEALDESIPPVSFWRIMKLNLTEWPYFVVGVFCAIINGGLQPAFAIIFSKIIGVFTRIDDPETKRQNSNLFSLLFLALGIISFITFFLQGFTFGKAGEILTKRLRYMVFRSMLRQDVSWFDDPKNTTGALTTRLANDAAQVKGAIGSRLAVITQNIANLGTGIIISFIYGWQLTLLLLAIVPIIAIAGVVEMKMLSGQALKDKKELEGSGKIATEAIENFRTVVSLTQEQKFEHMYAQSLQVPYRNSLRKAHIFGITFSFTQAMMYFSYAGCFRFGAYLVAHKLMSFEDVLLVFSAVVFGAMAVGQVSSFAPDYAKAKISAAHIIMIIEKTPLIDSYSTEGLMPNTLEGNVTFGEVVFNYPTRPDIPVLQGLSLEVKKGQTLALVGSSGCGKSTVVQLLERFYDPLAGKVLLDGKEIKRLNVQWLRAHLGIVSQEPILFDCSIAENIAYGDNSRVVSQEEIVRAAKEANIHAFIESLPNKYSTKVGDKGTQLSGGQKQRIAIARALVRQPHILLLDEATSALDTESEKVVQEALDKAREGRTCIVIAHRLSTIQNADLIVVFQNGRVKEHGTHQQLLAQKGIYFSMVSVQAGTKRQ

[6] = system: P-gp; conditions: cited from earlier work
[7] = Arterial input function and plasma metabolism of the radiotracer in rats; type: in vivo; conditions: rat
Procedure: Blood samples (50 µL) were collected at selected times from the femoral artery to establish total radioactivity kinetics in arterial plasma. Plasma was separated from whole blood by centrifugation (5 min, 2054 g, 4 °C), and 20 µL of plasma and whole blood were counted using a PET cross-calibrated gamma well counter (WIZARD2, PerkinElmer, Villebon-sur-Yvette, France) to obtain the whole-blood and plasma activity curves. All data were corrected for radioactive decay from the injection time. For the larger blood samples, 80 µL plasma was deproteinized with acetonitrile. The supernatant was injected in high-performance liquid chromatography, equipped with an Atlantis® T3 5 μm 10 × 250 mm column (Waters, Guyancourt, France) and an Atlantis® T3 5 μm 19 × 10 mm pre-column (Waters) with an LB-514 radioactivity flow detector (Berthold, France, MX Z100 cell). The mobile phase was composed of water containing 0.1% (v/v) TFA (solvent A) and acetonitrile containing 0.1% (v/v) TFA (solvent B) delivered in a gradient elution mode at a flow rate of 5 mL min^−1: solvent B increased linearly from 20 to 30% from 0 to 9 min.
The method for [^11C]metoclopramide metabolism has been previously reported.

[8] = molecular target: T1, human P-gp; design: method as in PMID 34496661; conditions: cited from earlier work; for IC50: read-out: IC50 of TQD (P-gp inhibition)
[9] = rat; 60 min post-injection; cited from earlier work
[10] = design: method as in PMID 26585058, PMID 34496661; conditions: rat; 8 mg/kg tariquidar versus baseline; cited from earlier work
[11] = system: P-gp; assay: Brain PET imaging in rats at baseline and after P-gp inhibition with TQD; type: in vivo; conditions: brain/plasma, with tariquidar; rat; presence of P-gp inhibition (TQD); newly calculated from published PET data of ref 21, 24
Procedure: (§1) PET acquisitions were performed using an Inveon microPET scanner (Siemens, TN, USA). […] Radiotracers were diluted in saline to obtain at least <10% ethanol in the ready-to-inject preparation.
(§2) TQD was used to inhibit P-gp function in rats. TQD was injected in a volume of 200–300 µL into the caudal vein 15 min before radiotracer injection.
(§3) Images were reconstructed with the Fourier rebinning algorithm and the three-dimensional ordered-subset expectation-maximization algorithm, including normalization, attenuation, scatter, and random corrections. Image analysis and quantification of radioactivity uptake were performed using PMOD software (version 3.9; PMOD Technologies, Zurich, Switzerland). A region of interest was drawn over the whole brain to generate time-activity curves (TACs) with time frame durations of 0.25 min, 2 × 0.5 min, 0.75 min, 4 × 1 min, 1.5 min, 4 × 2 min, 3 × 2.5 min, 3 × 3 min, and 3.5 min. Brain radioactivity was corrected for ^11C decay and expressed as the standardized uptake value (SUV) after correction by injected dose and animal weight.
(§4) The mean AUCplasma 20–30 was obtained in each condition to estimate Kp,brain = AUCbrain 20–30/AUCplasma 20–30, considering the mean metabolite-corrected arterial input function. Kp,brain were compared with a two-way ANOVA and a Tukey’s post hoc test using Graphpad Prism software (V8.0, San Diego, CA, USA).

[12] = as above; type: in vivo; conditions: rat
Procedure: as §1, §2, §3, §4

[13] = molecular target: T1, human P-gp; assay: Uptake assay in P-gp overexpressing MDCKII-MDR1 cells with radiolabeled substrate and tariquidar; type: cell-based; conditions: [11C]domperidone as substrate, 30 min incubation, CI95% 198-248 nM, read-out: IC50 of TQD (P-gp inhibition)
Procedure: Culture media and buffers were obtained from Fischer Scientific, France. Stably transfected MDCKII-MDR1 cells were obtained from Dr. Alfred Schinkel (National Cancer Institute, Amsterdam, The Netherlands) and were grown under a controlled atmosphere at 37 °C, 5% CO2. The culture medium was composed of DMEM Glutamax (Dulbecco’s Modified Eagle Medium, 4.5 g/Ldextrose, 1 mM pyruvate) supplemented with 10% fetal bovine serum and 1% antibiotics (penicillin and streptomycin 5000 U/mL).
Cells were seeded in 24-well plates (30,000 cells per well) in a 500 μL culture medium. Cells were grown to confluence (~2 days). […] Then, 400 μL of cell lysate was collected from each well (n = 4 wells per condition) and gamma counted using a Cobra Quantum (Perkin-Elmer, Villebon-sur-Yvette, France).
Counting values obtained in each well were normalized using Equation (1):(1) I%=R−mRzero/mRmax×100 where I% is the extent of inhibition (I%) between 0 and 100%, R is the radioactivity in the 4 tested wells, mRzero is the mean of the 4 wells without TQD, and mRmax is the difference of means between the 4 wells containing the highest concentration of TQD (800 nM) and the 4 wells without TQD. […]

Compound: CCN(CC)CCNC(=O)c1cc(Cl)c(N)cc1OC [Metoclopramide]
- Kp,uu,brain ([1]; another study): 0.235
- Tissue/plasma ratio (Kp,brain) ([1]; ex vivo): 1.72
- Kp,uu,brain [1]: 2.4
- Passage across in vitro BBB model compared with passage across the filter (no BBB) [2]: 100%
- Neurological side effects: Frequent [3]: extrapyramidal signs, parkinsonian syndrome, akathisia
- Neurological side effects: Not Frequent [3]: dystonia, dyskinesia, altered consciousness
- Neurological side effects: Rare [3]: convulsions
- Neurological side effects: Unspecified frequency [3]: late dyskinesia, neuroleptic malignant syndrome
- Neurological side effects: Very Frequent [3]: sleepiness
- Efflux ratio [4]: 1.6
- Efflux ratio [5]: 1.4
- Fold increase in Kp,brain in P-gp deficient mice compared with wild-type mice [6]: 6.6 fold

Compound: O=c1[nH]c2cc(Cl)ccc2n1C1CCN(CCCn2c3ccccc3[nH][11c]2=O)CC1 [[^11C]domperidone]
- Parent (unmetabolized) fraction in plasma ([7]; 60 min post-injection): > 30%
- Effect of TQD on the fraction of parent (unmetabolized) radiotracer in plasma ([7]; with versus without TQD): did not impact

Compound: CCN(CC)CCNC(=O)c1cc(Cl)c(N)cc1O[11CH3] [[^11C]metoclopramide]
- Uptake ratio (intracellular radioactivity after complete P-gp inhibition / without inhibition) ([8]; MDCKII-MDR1 cells, 200 nM TQD): 1.4 ± 0.07
- Parent (unmetabolized) fraction in plasma [9]: could hardly be detected
- Maximal increase in brain exposure [10]: 2.9 fold
- Kp [11]: 47 ± 5.52
- Kp ([12]; brain/plasma, absence of P-gp inhibition, newly calculated from published PET data of ref 21, 24): 10.1 ± 2.01
- Baseline brain exposure (AUCbrain), fold higher compared with [11C]domperidone ([12]; baseline): 2.4 fold

Compound: COc1cc2c(cc1OC)CN(CCc1ccc(NC(=O)c3cc(OC)c(OC)cc3NC(=O)c3cnc4ccccc4c3)cc1)CC2 [tariquidar, Tariquidar]
- IC50 [13]: 0.221 µM
- IC50 ([8]; [11C]N-desmethyl-loperramide as substrate probe, same experimental conditions): 0.019 µM
- IC50 ([8]; [11C]metoclopramide as substrate, MDCKII-MDR1 cells, CI95% 2-8 nM): 0.004 µM
- IC50 ([8]; [11C]verapamil as substrate probe, same experimental conditions): 0.045 µM
